# Source: article PMC8625360 (Cells, 2021)
# Peptide text beside a SMILES is read from it. * marks the point of attachment. 5FAM = O=C1OC2(c3ccc(O)cc3Oc3cc(O)ccc32)c2ccc(C(=O)*)cc21
# Legend:
# HepG2 WT cells = test: Colocalization of EGFP-ATP7B-WT with TGN, lysosome (LAMP1) and LC3B markers; format: cell-based, human; details: 200 µM BCS, 24 h
# Protocol: For the detection of the effect of copper on autophagosome-lysosome fusion, 50,000 cells of each HepG2 WT and HepG2 ATP7B^−/− were grown on laminin-coated coverslips for 24 h, transduced with BacMam-GFP-RFP-LC3B overnight according to the manufacturer’s recommendations. The cells were then treated with CuSO4 at a concentration range from 100 µM to 800 µM for 24 h, fixed with 4% paraformaldehyde for 15 min and finally stained with 250 ng/mL DAPI (Thermo Fisher scientific, Molecular Probes, D1306) for 5 min. The coverslips were fixed on a glass slide using Mowiol 4–88 (Sigma Aldrich, 81381). The fluorescence cell imaging was acquired using a confocal Zeiss LSM 780 microscope with a 63 × 1.40 Oil DIC M27. […] Red and yellow puncta count per cell was done using the particle analysis in image J. For protein ATP7B trafficking analysis, 50,000 cells of HepG2 WT and HepG2 ATP7B^−/− were cultured in a 500 µL cell culture medium on a laminin-coated coverslip for 24 h, then transfected with EGFP-ATP7B. After 6 h post transfection, cells were transduced with BacMam-RFP-Golgi or the BacMam-RFP-Lysosome overnight, then treated with various concentrations of CuSO4 or 200 µM of bathocuproine disulfonate (BCS) for 24 h or EBSS for 2 h, respectively. To detect LC3B or endogenous ATP7B, the fixed cells were incubated with anti-LC3B or anti-ATP7B antibodies at 4 °C overnight followed by secondary antibody incubation, Alexa Fluor 568 goat anti-rabbit, at temperature for 1 h in the dark. Pearson’s correlation coefficient was analyzed per cell using the colocalization threshold of ImageJ Fiji.
# LC3B [1] = biological target: T1, LC3B (Homo sapiens, UniProt Q9GZQ8); test: Fluorescence polarization binding of CF-labelled LIR peptides to purified LC3B; details: CF-labelled peptide 2.5 µM (25 µL) + LC3B 0.2–330 µM (25 µL), HEPES buffer 50 mM pH 7.2, 50 mM NaCl, 2 mM DTE, one site-specific binding fit, three independent replications, read-out: Kd (dissociation constant) for LC3B
# T1 construct: His6 (N, cleaved yes); MBP (N, cleaved yes); made in house; host or cells: E. coli BL21-codonplus (DE3)-RIL
# Protocol: Binding experiments were done in a black 384-microwell plate. […] Each CF-labelled peptide in a volume of 25 µL at a concentration of 2.5 µM was combined with 25 µL of LC3B at a concentration range from 0.2–330 µM. The fluorescent polarization was measured with the excitation and emission wavelengths of […], respectively. The obtained polarization data were corrected by subtraction of the peptide alone (blank). The dissociation constant (Kd) was quantified using a nonlinear curve fitting the site-specific binding on GraphPad Prism 5.0 for Windows (GraphPad Software, La Jolla, CA, USA). Experiments were performed in three independent replications.
# LC3B [2] = biological target: T1, LC3B; test: Pull-down with resin-bound GST-LC3B as bait from transfected HEK293H cell lysate; format: binding; details: 500 µg HEK293H lysate, western blot, repeated two times
# Protocol: GST tagged LC3B was used as a bait to trap the full-length ATP7B from a lysate obtained from ATP7B transfected human embryonic kidney 293 H cell line (HEK293H) cells. To this end, 100,000 cells of HEK293H were cultured in 1 mL of DMEM media (Thermo Fisher Scientific, 31966-047) plus 10% fetal bovine serum (FBS) (Fisher Scientific, 10309433) and 1% Penicillin-Streptomycin (P/S) (Thermo Fisher Scientific, 15140122). Once the cells reached 80% confluence, cells were transfected with pIRES-GFP carrying full-length ATP7B (NM_000053.4) or its W1452A/L1455A mutant using Lipofectamine LTX and plus reagent (Invitrogen, 15338100). […] Blots were imaged on an Infrared fluorescence imaging system using Li-Cor 9120 Odyssey (LI-COR Biosciences, Bad Homburg, Germany). Protein band intensity quantification was done using ImageJ (National Institutes of Health, Bethesda, MD, USA).
Molecule,Kd (LC3B [1]) [µM],also measured
"Cc1cc(-c2ccc(S(=O)(=O)O)cc2)c2ccc3c(-c4ccc(S(=O)(=O)O)cc4)cc(C)nc3c2n1 [BCS, bathocuproine disulfonate]",–,"fold elevation of ATP7B fraction in the TGN vs basal medium condition (HepG2 WT cells): about 12.6 fold; ATP7B fraction in the TGN (HepG2 WT cells; from mean Pearson's correlation coefficient, 30 cells): 32.8%"
"CC(C)C[C@H](NC(=O)[C@H](C)NC(=O)[C@H](CC(C)C)NC(=O)[C@H](CO)NC(=O)[C@H](C)NC(=O)[C@H](CCCCN)NC(=O)[C@H](CC(=O)O)NC(=O)CNC(=O)[C@H](CC(=O)O)NC(=O)[C@H](CC(=O)O)NC(=O)[C@H](CC(=O)O)NC(=O)[C@H](C)NC(=O)c1ccc2c(c1)C(=O)OC21c2ccc(O)cc2Oc2cc(O)ccc21)C(=O)N[C@@H](CC(N)=O)C(=O)NCC(=O)N[C@@H](CCCNC(=N)N)C(=O)N[C@@H](CC(=O)O)C(N)=O [LIR3^W1452A,L1455A] (5FAM-ADDDGDKASLALNGRD-NH2)",> 250,–
CC(C)C[C@H](NC(=O)[C@H](CO)NC(=O)[C@H](C)NC(=O)[C@H](CCCCN)NC(=O)[C@H](CC(=O)O)NC(=O)CNC(=O)[C@H](CC(=O)O)NC(=O)[C@H](CC(=O)O)NC(=O)[C@H](CC(=O)O)NC(=O)[C@H](C)NC(=O)c1ccc2c(c1)C(=O)OC21c2ccc(O)cc2Oc2cc(O)ccc21)C(=O)N[C@@H](CC(C)C)C(=O)N[C@@H](CC(C)C)C(=O)N[C@@H](CC(N)=O)C(=O)NCC(=O)N[C@@H](CCCNC(=N)N)C(=O)N[C@@H](CC(=O)O)C(N)=O [LIR3^W1452A] (5FAM-ADDDGDKASLLLNGRD-NH2),> 250,–
wild-type ATP7B: full-length recombinant copper-transporting ATPase ATP7B from transfected HEK293H cell lysate (protein) MPEQERQITAREGASRKILSKLSLPTRAWEPAMKKSFAFDNVGYEGGLDGLGPSSQVATSTVRILGMTCQSCVKSIEDRISNLKGIISMKVSLEQGSATVKYVPSVVCLQQVCHQIGDMGFEASIAEGKAASWPSRSLPAQEAVVKLRVEGMTCQSCVSSIEGKVRKLQGVVRVKVSLSNQEAVITYQPYLIQPEDLRDHVNDMGFEAAIKSKVAPLSLGPIDIERLQSTNPKRPLSSANQNFNNSETLGHQGSHVVTLQLRIDGMHCKSCVLNIEENIGQLLGVQSIQVSLENKTAQVKYDPSCTSPVALQRAIEALPPGNFKVSLPDGAEGSGTDHRSSSSHSPGSPPRNQVQGTCSTTLIAIAGMTCASCVHSIEGMISQLEGVQQISVSLAEGTATVLYNPSVISPEELRAAIEDMGFEASVVSESCSTNPLGNHSAGNSMVQTTDGTPTSVQEVAPHTGRLPANHAPDILAKSPQSTRAVAPQKCFLQIKGMTCASCVSNIERNLQKEAGVLSVLVALMAGKAEIKYDPEVIQPLEIAQFIQDLGFEAAVMEDYAGSDGNIELTITGMTCASCVHNIESKLTRTNGITYASVALATSKALVKFDPEIIGPRDIIKIIEEIGFHASLAQRNPNAHHLDHKMEIKQWKKSFLCSLVFGIPVMALMIYMLIPSNEPHQSMVLDHNIIPGLSILNLIFFILCTFVQLLGGWYFYVQAYKSLRHRSANMDVLIVLATSIAYVYSLVILVVAVAEKAERSPVTFFDTPPMLFVFIALGRWLEHLAKSKTSEALAKLMSLQATEATVVTLGEDNLIIREEQVPMELVQRGDIVKVVPGGKFPVDGKVLEGNTMADESLITGEAMPVTKKPGSTVIAGSINAHGSVLIKATHVGNDTTLAQIVKLVEEAQMSKAPIQQLADRFSGYFVPFIIIMSTLTLVVWIVIGFIDFGVVQRYFPNPNKHISQTEVIIRFAFQTSITVLCIACPCSLGLATPTAVMVGTGVAAQNGILIKGGKPLEMAHKIKTVMFDKTGTITHGVPRVMRVLLLGDVATLPLRKVLAVVGTAEASSEHPLGVAVTKYCKEELGTETLGYCTDFQAVPGCGIGCKVSNVEGILAHSERPLSAPASHLNEAGSLPAEKDAVPQTFSVLIGNREWLRRNGLTISSDVSDAMTDHEMKGQTAILVAIDGVLCGMIAIADAVKQEAALAVHTLQSMGVDVVLITGDNRKTARAIATQVGINKVFAEVLPSHKVAKVQELQNKGKKVAMVGDGVNDSPALAQADMGVAIGTGTDVAIEAADVVLIRNDLLDVVASIHLSKRTVRRIRINLVLALIYNLVGIPIAAGVFMPIGIVLQPWMGSAAMAASSVSVVLSSLQLKCYKKPDLERYEAQAHGHMKPLTASQVSVHIGMDDRWRDSPRATPWDQVSYVSQVSLSSLTSDKPSRHSAAADDDGDKWSLLLNGRDEEQYI,–,ATP7B in elution fraction of GST-LC3B pull-down (LC3B [2]): detected in the elution fraction

# The next lines start with results.
Kd (LC3B [1]) [µM],Molecule,also measured
> 250,CSCC[C@H](NC(=O)c1ccc2c(c1)C(=O)OC21c2ccc(O)cc2Oc2cc(O)ccc21)C(=O)N[C@@H](CCCCN)C(=O)N[C@@H](CCCCN)C(=O)N[C@@H](CO)C(=O)N[C@@H](Cc1ccccc1)C(=O)N[C@@H](C)C(=O)N[C@@H](Cc1ccccc1)C(=O)N[C@@H](CC(=O)O)C(=O)N[C@@H](CC(N)=O)C(=O)N[C@H](C(=O)NCC(=O)N[C@@H](Cc1ccc(O)cc1)C(=O)N[C@@H](CCC(=O)O)C(=O)NCC(=O)NCC(=O)N[C@@H](CC(C)C)C(=O)N[C@@H](CC(=O)O)C(N)=O)C(C)C [LIR1] (5FAM-MKKSFAFDNVGYEGGLD-NH2),–
> 250,CC(C)[C@H](NC(=O)[C@H](Cc1ccc(O)cc1)NC(=O)[C@H](CO)NC(=O)[C@@H](NC(=O)[C@H](CCC(N)=O)NC(=O)[C@H](CC(=O)O)NC(=O)[C@H](Cc1c[nH]c2ccccc12)NC(=O)[C@@H]1CCCN1C(=O)[C@@H](NC(=O)[C@H](C)NC(=O)[C@H](CCCNC(=N)N)NC(=O)[C@@H]1CCCN1C(=O)[C@H](CO)NC(=O)[C@H](CC(=O)O)NC(=O)c1ccc2c(c1)C(=O)OC21c2ccc(O)cc2Oc2cc(O)ccc21)[C@@H](C)O)C(C)C)C(=O)N[C@@H](CO)C(=O)N[C@@H](CCC(N)=O)C(N)=O [LIR2] (5FAM-DSPRATPWDQVSYVSQ-NH2),–
